From US10251408B2, “Catechin function enhancement method” (KYUSHU UNIVERSITY, NATIONAL UNIVERSITY CORPORATION, priority 2014, dated 2019)

Tests used:
[1] = tested on: tail suspension test-induced disuse amyotrophy in mice; assay: Tail suspension test-induced disuse amyotrophy (quadriceps femoris weight); assay type: in vivo, mouse; settings: C57BL/6J mice; 5 mg/kg intragastric once a day; tail suspension for 10 days from day 7; FIG. 4
Method: Male C57BL/6J mice at 12 weeks of age were divided into 5 groups such that the average body weight was equal in all groups, i.e., a GR (ground) group, a TS (tail suspension) group, an EGCG group, an eriodictyol group, and an EGCG+eriodictyol group. From the beginning of grouping, the GR and TS groups received physiological saline, the EGCG group received EGCG and the eriodictyol group received eriodictyol (5 mg/kg) by intragastric administration, while the EGCG+eriodictyol group received EGCG and eriodictyol (5 mg/kg) by intragastric administration through a sonde. For 7 days from the beginning of grouping, all the groups were kept under normal conditions, and the TS, EGCG, eriodictyol, and EGCG+eriodictyol groups were then subjected to a tail suspension test. After the tail suspension test for 10 days (at 17 days after initiation of the experiment), all the mice were sacrificed by abdominal aortic puncture under isoflurane anesthesia, and the quadriceps femoris was excised from each mouse and measured for its weight. Each sample was administered daily throughout the experimental period. […] At 10 days after starting the tail suspension test, the mice were sacrificed by abdominal aortic puncture under isoflurane anesthesia, and the quadriceps femoris was excised from each mouse and measured for its weight.

[2] = tested on: Human multiple myeloma cell line U266; assay: Anticancer effect, viable cells by trypan blue assay (24-well plates, FIG. 14-19); assay type: cell-based; settings: 5 μM each, 96 hours; for enhancement of the anticancer effect (viable cells) of EGCG: combined with EGCG; for enhancement of the anticancer effect (viable cells) of EGCG 3″Me: combined with EGCG 3″Me; for enhancement of the anticancer effect (viable cells) of GCG: combined with GCG (gallocatechin gallate)
Method: Human multiple myeloma cell line U266 was subcultured and maintained in RPMI 1640 medium supplemented with 10% fetal bovine serum (FCS) under conditions of 37° C. and water vapor-saturated 5% CO2. The cells were maintained in the logarithmic growth phase. The RPMI 1640 medium used for culture was prepared as follows: per liter of ultrapure water, RPMI 1640 medium (10.4 g), HEPES (2.38 g), injectable penicillin G potassium (100,000 units), streptomycin sulfate injectable (100 mg) and NaHCO3 (2.0 g) were suspended and then filter-sterilized. Then, the RPMI 1640 medium was supplemented with FCS and used for cell culture. Per liter of ultrapure water, NaCl (8.0 g), KCl (0.2 g), Na2HPO4 (1.15 g) and KH2PO4 (0.2 g) were dissolved to prepare PBS, which was then sterilized in an autoclave.
Eriodictyol and structural analogs thereof, i.e., naringenin and hesperetin, as well as glycosides thereof, i.e., eriocitrin, naringin and hesperidin were each adjusted to 5 mM with 100% dimethyl sulfoxide (DMSO) and stored at −30° C. EGCG and (−)-gallocatechin gallate (GCG) were each adjusted to 5 mM with ultrapure water and stored at −30° C. EGCG 3″Me was adjusted to 5 mM with 10% DMSO dH2O and stored at −30° C.
U266 adjusted to 5×10^4 cells/mL in RPMI 1640 containing 1% FCS, SOD (5 U/mL) and catalase (200 U/mL) was seeded in 24-well plates and cultured for 96 hours in the presence of EGCG and analogs thereof or eriodictyol and analogs thereof added at a final concentration of 5 μM each. After culture, viable cells were counted by trypan blue assay.
For statistical processing of the experimental results, Student's test was used and P<0.05 was considered statistically significant in comparison with control data in the vehicle group.

[3] = tested on: Human multiple myeloma cell line U266; assay: Cancer cell death induction, viable cells by trypan blue assay (96-well plate, FIG. 9); assay type: cell-based; settings: 96 hours, in combination with EGCG, EGCG 3″Me or green tea extract
Method: Human multiple myeloma cell line U266 was subcultured and maintained in RPMI 1640 medium supplemented with 10% FCS under conditions of 37° C. and water vapor-saturated 5% CO2. The cells were maintained in the logarithmic growth phase. The RPMI 1640 medium used for culture was prepared as follows: per liter of ultrapure water, RPMI 1640 medium (10.4 g), HEPES (2.38 g), injectable penicillin G potassium (100,000 units), streptomycin sulfate injectable (100 mg) and NaHCO3 (2.0 g) were suspended and then filter-sterilized.
The lemon peel extract used in the experiment was prepared as follows. Peels (100 g) were collected with a grater from 6 lemons and 100% EtOH (100 mL) was added thereto, followed by mashing with a mortar. The mashed mixture was further strained through gauze to remove fibers and then filtered by gravity using a #1 paper filter and a funnel to remove precipitates, followed by centrifugation at 12000×g to collect the supernatant. The resulting ethanol extract of lemon was evaporated with an evaporator to volatilize the solvent, thereby obtaining an ethanol-extracted lemon fraction. This ethanol-extracted lemon fraction was dissolved again in DMSO to give a lemon extract. […] After culture, viable cells were counted by trypan blue assay.
To evaluate the effect of combined use of EGCG or a structural analog thereof or an EGCG-containing naturally occurring product and eriodictyol or a structural analog thereof or an eriodictyol-containing naturally occurring product, human multiple myeloma cell line U266 was adjusted to 5×10^4 cells/mL and seeded in a 96-well plate, and then cultured for 96 hours in the presence of EGCG and eriodictyol added at a final concentration of 5 μM each. After culture for 96 hours, viable cells were counted by trypan blue assay.

| SMILES | effect on amyotrophy (quadriceps femoris weight) [1] | enhancement of the anticancer effect (viable cells) of EGCG [2] | enhancement of the anticancer effect (viable cells) of EGCG 3″Me [2] | enhancement of the anticancer effect (viable cells) of GCG [2] | enhancement of the anticancer effect (viable cells) of EGCG, EGCG 3″Me or a green tea extract [3] |
| --- | --- | --- | --- | --- | --- |
| O=C(O[C@@H]1Cc2c(O)cc(O)cc2O[C@@H]1c1cc(O)c(O)c(O)c1)c1cc(O)c(O)c(O)c1 [EGCG, epigallocatechin gallate] | no effect on amyotrophy | – | – | – | – |
| C[C@@H]1O[C@@H](OC[C@H]2O[C@@H](Oc3cc(O)c4c(c3)O[C@H](c3ccc(O)c(O)c3)CC4=O)[C@H](O)[C@@H](O)[C@@H]2O)[C@H](O)[C@H](O)[C@H]1O [eriocitrin] | – | remarkably enhance the anticancer effect | remarkably enhance the anticancer effect | remarkably enhance the anticancer effect | – |
| COc1ccc([C@@H]2CC(=O)c3c(O)cc(O)cc3O2)cc1O [hesperetin] | – | remarkably enhance the anticancer effect | remarkably enhance the anticancer effect | remarkably enhance the anticancer effect | remarkably enhance the anticancer effect |
| COc1ccc([C@@H]2CC(=O)c3c(O)cc(O[C@@H]4O[C@H](CO[C@@H]5O[C@@H](C)[C@H](O)[C@@H](O)[C@H]5O)[C@@H](O)[C@H](O)[C@H]4O)cc3O2)cc1O [hesperidin] | – | remarkably enhance the anticancer effect | remarkably enhance the anticancer effect | remarkably enhance the anticancer effect | – |
| O=C1C[C@@H](c2ccc(O)cc2)Oc2cc(O)cc(O)c21 [naringenin] | – | remarkably enhance the anticancer effect | remarkably enhance the anticancer effect | remarkably enhance the anticancer effect | remarkably enhance the anticancer effect |
| C[C@@H]1O[C@@H](O[C@H]2[C@H](Oc3cc(O)c4c(c3)O[C@H](c3ccc(O)cc3)CC4=O)O[C@H](CO)[C@@H](O)[C@@H]2O)[C@H](O)[C@H](O)[C@H]1O [naringin] | – | remarkably enhance the anticancer effect | – | – | – |
